Converted amounts (≈) assume the structure as drawn. The source made the active and inactive calls. No cut-off for these calls is given here.
Assays:
[1] = test system: Giardia intestinalis; test: Anti-protozoal activity against Giardia duodenalis 713 assessed as inhibition of protozoal growth measured after 72 hrs under anaerobic conditions; type: functional
[2] = test system: NFF; test: Cytotoxicity against human NFF cells incubated for 72 hrs by resazurin staining based microplate reader assay; type: toxicity, cell-based
[3] = test system: Tritrichomonas foetus; test: Antiprotozoal activity against Tritrichomonas foetus KV-1 strain assessed as inhibition of protozoal growth measured after 72 hrs under anaerobic conditions; type: functional
[4] = test system: DU-145; test: Cytotoxicity against human DU-145 cells incubated for 72 hrs by resazurin staining based microplate reader assay; type: functional
[5] = test system: MCF7; test: Cytotoxicity against human MCF7 cells incubated for 72 hrs by resazurin staining based microplate reader assay; type: functional
[6] = test system: Saccharomyces cerevisiae; test: Antifungal activity against Saccharomyces cerevisiae ATCC 9763 assessed as fungal growth inhibition incubated for 48 hrs by bromocresol green staining based microplate reader assay; type: functional
[7] = test system: Candida albicans; test: Antifungal activity against Candida albicans ATCC 10231 assessed as fungal growth inhibition incubated for 48 hrs by bromocresol green staining based microplate reader assay; type: functional
[8] = test system: Escherichia coli; test: Antibacterial activity against Escherichia coli ATCC 25922 assessed as bacterial growth inhibition incubated for 48 hrs by resazurin staining based microplate reader assay; type: functional
[9] = test system: Bacillus subtilis; test: Antibacterial activity against Bacillus subtilis ATCC 6633 assessed as bacterial growth inhibition incubated for 48 hrs by resazurin staining based microplate reader assay; type: functional
[10] = Cytotoxicity against mouse NS-1 cells incubated for 72 hrs by resazurin staining based microplate reader assay; type: functional
[11] = test system: Staphylococcus aureus; test: Antibacterial activity against Staphylococcus aureus ATCC 25923 assessed as bacterial growth inhibition incubated for 48 hrs by resazurin staining based microplate reader assay; type: functional
[12] = test system: Aspergillus nomiae; test: Antifungal activity against Aspergillus nomius MST-FP2004 assessed as reduction in growth diameter at 20 ug by disc diffusion assay relative to control; type: functional; set-up: scale not given: the % may be the effect or the level left; details: dose 20 µg
[13] = test system: Aspergillus nomiae; test: Antifungal activity against Aspergillus nomius MST-FP2004 assessed as fungal growth rate at 20 ug by disc diffusion assay; type: functional, organism-based; details: dose 20.0 µg
[14] = test system: Aspergillus nomiae; test: Antifungal activity against Aspergillus nomius MST-FP2004 assessed as change in morphology at 20 ug by disc diffusion assay; type: functional, organism-based; details: dose 20.0 µg
[15] = test system: Penicillium brasilianum; test: Antifungal activity against Penicillium brasilianum MST-FP1927 assessed as change in morphology at 20 ug by disc diffusion assay; type: functional, organism-based; details: dose 20.0 µg
[16] = test system: Penicillium brasilianum; test: Antifungal activity against Penicillium brasilianum MST-FP1927 assessed as fungal growth rate at 20 ug by disc diffusion assay; type: functional, organism-based; details: dose 20.0 µg

Compound	LD99 [1] [µM]	LD99 [2] [µM]	LD99 [3] [µM]	LD99 [4] [µM]	LD99 [5] [µM]	MIC [6] [µg/mL]	MIC [7] [µg/mL]	MIC [8] [µg/mL]	MIC [9] [µg/mL]	LD99 [10] [µM]	MIC [11] [µg/mL]	Activity [12] [%]	Activity [13]	Activity [14]	Activity [15]	Activity [16]
Cc1ncc([N+](=O)[O-])n1CCO [METRONIDAZOLE]	9.1	–	–	–	–	–	–	–	–	–	–	–	–	–	–	–
CN[C@@H]1C[C@H]2O[C@@](C)([C@@H]1OC)n1c3ccccc3c3c4c(c5c6ccccc6n2c5c31)C(=O)NC4 [STAUROSPORINE]	–	0.09	1.2	3.4	54	–	–	–	–	–	–	–	–	–	–	–
C[C@@H]1[C@H](O)[C@@H](C)/C=C/C=C/C=C/C=C/C=C/C=C/C=C/[C@H](O[C@@H]2O[C@H](C)[C@@H](O)[C@H](N)[C@@H]2O)C[C@@H]2O[C@](O)(C[C@@H](O)C[C@@H](O)[C@H](O)CC[C@@H](O)C[C@@H](O)CC(=O)O[C@H]1C)C[C@H](O)[C@H]2C(=O)O [AMPHOTERICIN B]	–	–	–	–	–	0.28 (≈ 0.303 µM)	0.09 (≈ 0.0974 µM)	–	–	–	–	–	–	–	–	–
COC(=O)c1oc(=O)c2c(O)c3c(O)c(C(C)=O)oc3cc2c1O	37	> 100	4.8	>100	>100	> 100	> 100	> 100	42 (≈ 126 µM)	7.8	> 100	~7	inactive	inactive	–	–
CO[C@@]12[C@H](COC(N)=O)C3=C(C(=O)C(C)=C(N)C3=O)N1C[C@@H]1N[C@@H]12 [MITOMYCIN]	–	–	–	–	–	–	–	–	–	0.93	–	–	–	–	–	–
CCCCCCC/C=C/C1=CC(=O)[C@]2(O1)C(=O)N[C@@](C)(O)[C@H]2O	39	> 100	>100	39	>100	> 100	> 100	> 100	25 (≈ 77.3 µM)	77	50 (≈ 155 µM)	–	–	–	inactive	inactive
COC(=O)c1oc(=O)c2c(O)c(C(=O)O)c(O)cc2c1O	>100	> 100	>100	>100	>100	> 100	> 100	> 100	> 100	>100	> 100	–	inactive	inactive	–	–
GENTAMICIN	–	–	–	–	–	–	–	0.81	0.38	–	0.38	–	–	–	–	–

— ChEMBL document CHEMBL5370597, “Fungal Duel between Penicillium brasilianum and Aspergillus nomius Results in Dual Induction of Miktospiromide A and Kitrinomycin A” (J Nat Prod, 2023)
